Data taken from ChEMBL document CHEMBL1136253 (Bioorg Med Chem Lett, 2003).
pIC50, pKi: −log10 of the molar value.

Target: T1, Corticotropin-releasing factor receptor 1 (Homo sapiens, UniProt P34998)
T1 sequence (P34998 whole entry): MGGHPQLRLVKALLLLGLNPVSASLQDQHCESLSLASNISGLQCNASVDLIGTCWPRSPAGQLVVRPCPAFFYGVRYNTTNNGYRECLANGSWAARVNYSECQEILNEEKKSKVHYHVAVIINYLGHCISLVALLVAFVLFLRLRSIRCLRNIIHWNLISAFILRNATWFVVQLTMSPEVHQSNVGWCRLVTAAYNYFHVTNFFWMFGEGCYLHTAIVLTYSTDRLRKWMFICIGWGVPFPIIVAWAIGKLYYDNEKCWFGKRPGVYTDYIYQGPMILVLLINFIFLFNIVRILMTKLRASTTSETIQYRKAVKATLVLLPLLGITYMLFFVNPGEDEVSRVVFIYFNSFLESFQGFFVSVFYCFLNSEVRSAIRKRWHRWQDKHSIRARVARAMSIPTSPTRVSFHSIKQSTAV
Assay: Inhibition of Corticotropin releasing factor receptor 1-stimulated cAMP production
Assay type: functional

Structure (SMILES)	pIC50
CCCN(CCOC)c1cc(C)nc2c(-c3ccc(Cl)cc3Cl)nn(C)c12	7.44
COCCN(CCOC)c1cc(C)nc2c(-c3ccc(Cl)cc3Cl)nn(C)c12	7.42
CCCN(CCO)c1cc(C)nc2c(-c3ccc(Cl)cc3Cl)nn(C)c12	7.74
CCCCN(CC1CC1)c1cc(C)nc2c(-c3ccc(Cl)cc3Cl)nn(C)c12	8.52
CCN(CCOC)c1cc(C)nc2c(-c3ccc(Cl)cc3Cl)nn(C)c12	7.82
CCCCN(CCCC)c1cc(C)nc2c(-c3ccc(Cl)cc3Cl)nn(C)c12	8.30

Target: T1, Corticotropin-releasing factor receptor 1
Assay: Binding affinity towards Corticotropin releasing factor receptor 1 was measured through displacement of [125I]sauvagine expressed in HEK293 cells
Assay type: cell-based

Structure (SMILES)	pKi
CCCCNc1cc(C)nc2c(-c3ccc(Cl)cc3Cl)nn(C)c12	6.77
CCN(CC1CC1)c1cc(C)nc2c(-c3ccc(Cl)cc3Cl)nn(C)c12	8.36
Cc1cc(NCc2ccc(O)cc2)c2c(n1)c(-c1ccc(Cl)cc1Cl)nn2C	< 5.00
CCCN(CCOC)c1cc(C)nc2c(-c3ccc(Cl)cc3Cl)nn(C)c12	8.29
CCCCN(CCCC)c1cc(C)nc2c(-c3c(C)cc(C)cc3Cl)nn(C)c12	8.68
CCCN(C)c1cc(C)nc2c(-c3ccc(Cl)cc3Cl)nn(C)c12	7.62
COCCN(CCOC)c1cc(C)nc2c(-c3ccc(Cl)cc3Cl)nn(C)c12	8.09
CCCCN(CCCC)c1cc(C)nc2c(-c3ccc(Cl)cc3)nn(C)c12	6.47
CCCCN(CCOC)c1cc(C)nc2c(-c3ccc(Cl)cc3Cl)nn(C)c12	7.98
CCCN(CCO)c1cc(C)nc2c(-c3ccc(Cl)cc3Cl)nn(C)c12	8.36
CCCCCN(CC1CC1)c1cc(C)nc2c(-c3ccc(Cl)cc3Cl)nn(C)c12	8.82
CCCN(Cc1ccc(O)cc1)c1cc(C)nc2c(-c3ccc(Cl)cc3Cl)nn(C)c12	7.89
CCCCN(CC1CCCO1)c1cc(C)nc2c(-c3ccc(Cl)cc3Cl)nn(C)c12 (stereo unspecified)	7.95
CCCCN(CC1CCCN1C)c1cc(C)nc2c(-c3ccc(Cl)cc3Cl)nn(C)c12 (stereo unspecified)	6.42
CCCCCN(CCOC)c1cc(C)nc2c(-c3ccc(Cl)cc3Cl)nn(C)c12	8.17
CCCCCN(CC)c1cc(C)nc2c(-c3ccc(Cl)cc3Cl)nn(C)c12	8.89
CCCCCN(CCC)c1cc(C)nc2c(-c3ccc(Cl)cc3Cl)nn(C)c12	8.92
CCCCN(CC1CC1)c1cc(C)nc2c(-c3ccc(Cl)cc3Cl)nn(C)c12	8.89
COCCN(c1cc(C)nc2c(-c3ccc(Cl)cc3Cl)nn(C)c12)C(C)C	8.01
CCCCN(CCc1ccncc1)c1cc(C)nc2c(-c3ccc(Cl)cc3Cl)nn(C)c12	7.47

Structure (SMILES)	pKi
CCCCN(CCc1ccccn1)c1cc(C)nc2c(-c3ccc(Cl)cc3Cl)nn(C)c12	7.89
COCCN(CC(C)C)c1cc(C)nc2c(-c3ccc(Cl)cc3Cl)nn(C)c12	7.98
CCCCN(CCCC)c1cc(C)nc2c(-c3ccc(C)cc3Cl)nn(C)c12	8.55
CCN(CCOC)c1cc(C)nc2c(-c3ccc(Cl)cc3Cl)nn(C)c12	8.49
COCCN(C)c1cc(C)nc2c(-c3ccc(Cl)cc3Cl)nn(C)c12	7.49
CCCCCN(CCCC)c1cc(C)nc2c(-c3ccc(Cl)cc3Cl)nn(C)c12	9.05
CCCCN(c1cc(C)nc2c(-c3ccc(Cl)cc3Cl)nn(C)c12)C(CC)CC	8.15
CCCCCCN(CC1CC1)c1cc(C)nc2c(-c3ccc(Cl)cc3Cl)nn(C)c12	9.00
CCCCCCN(CCOC)c1cc(C)nc2c(-c3ccc(Cl)cc3Cl)nn(C)c12	8.40
CCCN(CC)c1cc(C)nc2c(-c3ccc(Cl)cc3Cl)nn(C)c12	8.39
CCCCN(CCCC)c1cc(C)nc2c(-c3ccc(OC)cc3Cl)nn(C)c12	8.32
CCN(CCCOC)c1cc(C)nc2c(-c3ccc(Cl)cc3Cl)nn(C)c12	7.90
CCCC(CO)Nc1cc(C)nc2c(-c3ccc(Cl)cc3Cl)nn(C)c12 (stereo unspecified)	7.21
CCCCN(CCCC)c1cc(C)nc2c(-c3c(C)cc(C)cc3C)nn(C)c12	8.29
CCCN(CCCOC)c1cc(C)nc2c(-c3ccc(Cl)cc3Cl)nn(C)c12	8.01
CCCCN(Cc1ccncc1)c1cc(C)nc2c(-c3ccc(Cl)cc3Cl)nn(C)c12	7.17
CCCCN(CCCOC)c1cc(C)nc2c(-c3ccc(Cl)cc3Cl)nn(C)c12	7.74
Cc1cc(N(CC(C)C)CC2CC2)c2c(n1)c(-c1ccc(Cl)cc1Cl)nn2C	8.43
CCCCN(CCSC)c1cc(C)nc2c(-c3ccc(Cl)cc3Cl)nn(C)c12	8.85

Target: T1, Corticotropin-releasing factor receptor 1
Assay: Inhibition of (Corticotropin-Releasing Factor Receptor) CRF-stimulated cAMP production
Assay type: functional

Structure (SMILES)	pIC50
CCCN(CC1CC1)c1cc(C)nc2c(-c3ccc(Cl)cc3Cl)nn(C)c12	7.80
